# Assays:
# Type in all cases: cell-based
# primary human monocytes [1] = test: In vitro inflammation inhibition, LPS-stimulated monocytes
# Protocol: (§1) For pharmacological inhibition experiments, the monocytes were pre-incubated for 1 hour with one of the inhibitors described in Table 2 before addition of the training stimulus.
# In vitro inflammation inhibition: Monocytes were adhered to a flat-bottom cell culture plate for 1 hour and washed with warm PBS to remove any non-adherent cells and cell debris. […] Following the initial 24-hour stimulation, the supernatants were collected and stored at −20° C. until further analysis with ELISA for IL6 and TNF.
# (§2) Cytokine and lactate measurements: TNF, IL6, and IL1Ra were measured in cell culture supernatants using duoset ELISA kits (R&D systems), according to the manufacturer's instructions. For lactate measurements, a fluorometric assay was used. 30 μl sample, medium control, or known standard was added to a black 96-well plate. Then, 30 μl reaction mix (PBS pH 7.4, horse radish peroxidase (0.2 U/ml), lactate oxidase (2 U/ml), Amplex red (100 μM; Fisher scientific)) was added and the reaction was incubated for 20 minutes in the dark at RT. Immediately thereafter, fluorescence was measured at 530/25 nm and 590/35 nm. Gen5 software (v3.03, BioTek) was used in conjunction with Microsoft Excel to calculate cytokine and lactate concentrations in the original samples.
# primary human monocytes [2] = test: In vitro model of trained immunity in primary human monocytes
# Description: In vitro model of trained immunity in primary human monocytes: To induce trained immunity in primary human monocytes, a previously optimized and published method was used (Dominguez-Andres, J. et al. In vitro induction of trained immunity in adherent human monocytes. STAR Protoc 2, 100365, doi:10.1016/j.xpro.2021.100365 (2021); van Lier, D., Geven, C., Leijte, G. P. & Pickkers, P. Experimental human endotoxemia as a model of systemic inflammation. Biochimie 159, 99-106, doi:10.1016/j.biochi.2018.06.014 (2019)). Briefly: monocytes were adhered to a flat-bottom cell culture plate for 1 hour and washed with warm PBS to remove any non-adherent cells and cell debris. Then, they were stimulated (“trained”) for 24 hours with one of the stimuli detailed in Table 1, or medium only (“untrained” control).
# as §1
# Following the initial 24-hour stimulation, the cells were washed with warm PBS and warm cell culture medium was added. The monocytes were then allowed to rest and differentiate into macrophages for 5 days. On day 6, the induction of trained immunity was assessed. To this end, the cells were typically re-stimulated with LPS for an additional 24 hours to elicit cytokine production. The supernatants were collected and stored at −20° C. until further analysis, e.g. with ELISA for IL6 and TNF.
# as §2
# [3] = test system: tolerant monocytes from the LPS-challenged volunteers; test: Experimental human endotoxemia model, ex vivo tolerance reversal; conditions: ex vivo exposure 24 hours, re-stimulation on day 3
# Description: In vivo experimental human endotoxemia model and ex vivo analyses: Eight healthy (as confirmed by medical history, physical examination, and routine laboratory testing) male volunteers provided written informed consent to participate in experimental endotoxemia experiments conducted at the research unit of the intensive care department of the Radboud university medical center. All study procedures were approved by the local ethics committee (CMO Arnhem-Nijmegen, registration numbers NL71293.091.19 and 2019-5730), and were conducted in accordance with the latest version of the declaration of Helsinki.
# A continuous endotoxin infusion regimen was employed, as is described in detail elsewhere (van Lier, D., Geven, C., Leijte, G. P. & Pickkers, P. Experimental human endotoxemia as a model of systemic inflammation. Biochimie 159, 99-106, doi:10.1016/j.biochi.2018.06.014 (2019)). […] A 3-lead ECG was recorded continuously throughout the experiment. […] Participants were monitored for 8 hours after the endotoxin loading dose after which they were discharged from the research unit. […]
# Cytokine and lactate measurements: TNF, IL6, and IL1Ra were measured in cell culture supernatants using duoset ELISA kits (R&D systems), according to the manufacturer's instructions. […] Immediately thereafter, fluorescence was measured at 530/25 nm and 590/35 nm. […]
# [4] = Percoll-enriched monocytes, LPS 24 hours, IL4 25 ng/mL
substance,measurement,setting,value
IL4: recombinant human interleukin 4,secretion of IL6,primary human monocytes [1]; [4],potently inhibited
same,secretion of IL-1Ra,primary human monocytes [1]; [4],secreted significantly more IL-1Ra compared to controls
same,secretion of TNF,primary human monocytes [1]; [4],potently inhibited
same,baseline lactate production,"primary human monocytes [1]; otherwise unstimulated monocytes vs medium control, data not shown","slightly, but significantly, lower baseline lactate production"
same,induction of trained immunity (TNF and IL6 after LPS re-stimulation on day 6),"primary human monocytes [2]; 24 hours training, 5-day rest, LPS 24 hours",induced a trained immunity phenotype on day 6
same,lactate at baseline of trained cells,"primary human monocytes [2]; IL4-trained cells, day 6, data not shown",produced more lactate at baseline
same,effect on β-glucan-induced trained immunity,primary human monocytes [2]; IL4 added in the first 24 hours with β-glucan,did not inhibit the training effect
same,production of IL6 upon re-stimulation with LPS,[3],but not IL6
same,production of TNF upon re-stimulation with LPS,[3],significantly improved
